Laboratory results taken from patent US20110245334A1, “USE OF RACEMATES OF PINOCEMBRIN IN PREPARING MEDICAMENTS FOR TREATING STROKE” (CSPC Zhonggi Pharmaceutical Technology (Shijiazhuang) Co. …, priority 2008, published 2011).

Experiments:
[1] = antihistamine, oral administration; cited from earlier work
plasma fibrinogen = test: Plasma fibrinogen assay (ELISA) in SHRSP; type: in vivo, rat; parameters: Plasma fibrinogen: unit not given here; conditions: SHRSP rats
Method: The mixture was centrifuged for 15 min at 3000 rpm and plasma fibrinogen in liquid supernatant was determined by euzymelinked immunosorbent assay (ELISA).

plasma ET-1 = test: Plasma ET-1 (radioimmunoassay) in SHRSP; type: in vivo, rat; parameters: ET-1 content: unit not given here; conditions: SHRSP rats; for ET-1 content: plasma
Method: 5) Blood of 2 mL was dropped rapidly in a cuvette with 30 μL 7.5% EDTA-2Na and 40 μL aprotinin and mixed. After centrifuged for 5 min at 3000 rpm, plasma ET-1 in liquid supernatant was determined by isotope radioimmunoassay.

tMCAO rats [2] = test: Neurobehavioral examination (Bederson's score), tMCAO time window study; type: in vivo, rat; conditions: 2 hours ischemia and 24 hours reperfusion
Method: (§1) 1. In the test, transient middle cerebral artery occlusion (tMCAO) model of rats was adopted. The reperfusion was performed after focal cerebral ischemia for 2 hours so as to inspect therapeutic time window of pinocembrin after focal cerebral ischemia. The rats were administered by pinocembrin racemate (1 mg/kg, 5 mg/kg, intravenous injection) after reperfusion 1 hour, 4 hours and 6 hours (i.e., ischemia 3 hour, 6 hours and 8 hours). (R)-pinocembrin and (S)-pinocembrin (1 mg/kg, 5 mg/kg, intravenous injection) were administered after reperfusion 1 hour and 4 hours (i.e., ischemia 3 hour and 6 hours). The therapeutic time windows of these drugs in focal cerebral ischemia were assessed by studying their effects to neurological symptom scores, infarct sizes and brain water contents during 24 hours after tMCAO.
The CCA and ICA were clipped with artery clips. Two No. 0 surgery lines were litigated on the ECA distal end with 2-3 mm spacing and then the vascular between the two surgery lines was cut. The distal end of ECA was pulled until it formed a straight line with the ICA. An incision was cut on ECA and a nylon line was inserted through ECA into ICA. After the artery clip was loosen, the nylon line was pushed on into the brain through ICA and inserted in depth of 18.5±0.5 mm when resistance was felt slightly. The nylon line reached a smaller anterior cerebral artery through the beginning of MCA and then the blood flow obstruction in right MCA was established. the animals were kept in anesthesia during the obstruction. After 2 hours of obstruction, the nylon line was gently pulled out to ECA stub to form reperfusion. During the surgery process, the animals were irradiated by table lamp of 100 W to maintain the body temperature. The room temperature was kept in range of 23-25° C.
(§2) 2.4 Experimental Grouping and Administration • Sham operation group (intravenous injection of normal saline after 3 hours of ischemia); • Model group (intravenous injection of 50 mg/kg hydroxypropyl β-cyclodextrin after 3 hours of ischemia); • Nimodipine group (1 mg/kg, administered after 3 hours of ischemia); • Pinocembrin racemate group (1 mg/kg, 5 mg/kg, administered after 3, 6 and 8 hours of ischemia); • (R)-pinocembrin group (1 mg/kg, 5 mg/kg, administered after 3 and 6 hours of ischemia); • (S)-pinocembrin group (1 mg/kg, 5 mg/kg, administered after 3 and 6 hours of ischemia).
(§3) First administration was performed by intravenous injection, and intraperitoneal injection was carried out once 12 hours later with a dose 1.5 times of that for intravenous injection.
Neurobehavioral examination was performed respectively when the animals were awake after surgery and before the animals were put to death. Bederson's score was adopted (see details in Example 2, 1. Neurobehavioral Examination).

tMCAO rats [3] = test: Infarct volume (TTC), tMCAO time window study; type: in vivo, rat; conditions: 2 hours ischemia and 24 hours reperfusion
Method: as §1, §2, §3
After neurobehavioral scoring, the rats were put to death by decollation and their brain tissues were taken out quickly and put into a refrigerator of −20° C. 10 min later, the brain tissues were moved to an environment of room temperature. After the olfactory bulb, cerebellar and lower brain stem were resected, the brain tissue was cut into six continuous coronal slices with an interval of 2 mm. Then the brain slices were quickly put into 5 ml solution containing 2% TTC and incubated at a constant temperature of 37° C. and in a condition of darkness for 30 min. During the time, the brain slices were tipped every 5 min. […] Every group of brain slices were put in order and photographed. The photographs were processed by an image analysis system and the infarct areas in each slice were calculated. The infarct volume of each slice was calculated via multiplying the infarct area by thickness of slice (2 mm), and the infarct volume was the sum of infarct volumes of all slices. The infarct volume percentage was expressed as: sick-side infarct volume/total sick-side brain volume.

tMCAO rats [4] = test: Brain water content, tMCAO time window study; type: in vivo, rat; conditions: 2 hours ischemia and 24 hours reperfusion
Method: as §1, §2, §3
The wet weight of each animal's brain was weighted before sliced. After staining, the brain slices were dried at 105° C. for 24 hours, and the dry weight of each animal's brain was weighted. The brain water contents of animals of various groups were compared. Brain water content=(brain wet weight−brain dry weight)/brain wet weight×100%.

tMCAO rats [5] = test: Therapeutic time window in focal cerebral ischemia-reperfusion injured rats; type: in vivo, rat; conditions: tMCAO rats, 1 mg/kg, 5 mg/kg
Method: as §1, §2, §3

SD rats = test: Acute toxicity, single intravenous injection; conditions: single intravenous injection in SD rats
in vivo = conditions: SD, rat, iv
MCAO rats = test: Nissl staining of hippocampal neurons, MCAO; type: in vivo, rat; conditions: hippocampus, cerebral ischemia 24 hours
Method: After cerebral ischemia for 24 hours, the rats were anesthetized by intraperitoneal injection of 10% Chloral hydrate. After perfused via heart with heparinized normal saline for 10 min and 4% paraformaldehyde for 30 min, the brain tissue was taken out and moved in 4% paraformaldehyde to fix, then cut into coronal sections (6 μm) by a frozen section machine, and one section was taken out in every 20 sections to stain. The stained sections were expanded on a slide glass treated by polylysine, and then preserved in a refrigerator at −40° C.
Nissel staining: (1) the frozen section was taken out from the refrigerator and dried in room temperature; (2) put into acetone to fix for 30 min and washed by PBS for 3 times, 3 min every time; (3) dipped for 20-30 min in toluidine blue dye and then washed by water for 15 min; (4) dehydrated by ethanol in gradient manner and vitrified by xylene and mounted by a neutral gum; (5) observed under a light microscope and photographed for analysis; (6) 4 frozen sections in roughly same position for each rat were taken out and 5 vision fields in hippocampus for each section were observed under 200× light microscope (totally 20 visions per rat). The cells in vision fields were counted. The averages of ratios of the numbers in the administration groups to the number in the model group were calculated for statistical analysis.

[6] = initially injected after 3 hours of ischemia
[7] = initially injected after 6 hours of ischemia

Row | Compound | Plasma fibrinogen (plasma fibrinogen; 3 mg/kg) | Plasma fibrinogen (plasma fibrinogen; 10 mg/kg) | Plasma fibrinogen (plasma fibrinogen; 30 mg/kg) | ET-1 content (plasma ET-1; 3 mg/kg) | ET-1 content (plasma ET-1; 10 mg/kg) | ET-1 content (plasma ET-1; 30 mg/kg) | Neurobehavioral value (tMCAO rats [2]; 1 mg/kg, 3 h) | Neurobehavioral value (tMCAO rats [2]; 1 mg/kg, 6 h) | Neurobehavioral value (tMCAO rats [2]; 5 mg/kg, 3 h) | Neurobehavioral value (tMCAO rats [2]; 5 mg/kg, 6 h) | Infarct percentage (%) (tMCAO rats [3]; 1 mg/kg, 3 h) | Infarct percentage (%) (tMCAO rats [3]; 1 mg/kg, 6 h) | Infarct percentage (%) (tMCAO rats [3]; 5 mg/kg, 3 h) | Infarct percentage (%) (tMCAO rats [3]; 5 mg/kg, 6 h) | Brain water content (%) (tMCAO rats [4]; 1 mg/kg, 3 h) | Brain water content (%) (tMCAO rats [4]; 1 mg/kg, 6 h) | Brain water content (%) (tMCAO rats [4]; 5 mg/kg, 3 h) | Brain water content (%) (tMCAO rats [4]; 5 mg/kg, 6 h) | effect on neurobehavioral injury, infarct volume and cerebral edema (tMCAO rats [5]; [6]) | effect on neurobehavioral injury, infarct volume and cerebral edema (tMCAO rats [5]; [7]) | also measured
1 | CC(CN1c2ccccc2Sc2cccnc21)N(C)C (racemic) [isothipendyl racemate, isothipendyl] |  |  |  |  |  |  |  |  |  |  |  |  |  |  |  |  |  |  |  |  | efficacy relative to (+)-isomer [1]: 2.5 times; efficacy relative to (−)-isomer [1]: 1.4 times
2 | O=C1C[C@H](c2ccccc2)Oc2cc(O)cc(O)c21 [(R)-pinocembrin] | 2.99 ± 0.13 | 2.83 ± 0.18 | 2.74 ± 0.47 | 235.4 ± 35.2 | 228.4 ± 16.9 | 198.1 ± 35.4 | 1.42 ± 0.82 | 1.86 ± 0.57 | 1.39 ± 0.72 | 1.83 ± 0.49 | 15.69 ± 7.82 | 26.33 ± 12.67 | 15.66 ± 7.88 | 25.89 ± 13.57 | 82.18 ± 0.98 | 83.36 ± 1.12 | 81.20 ± 1.03 | 83.77 ± 1.07 | significant effects | not effective | LD50 (SD rats): 347.8 (257.4˜466.3) mg/kg
3 | O=C1C[C@@H](c2ccccc2)Oc2cc(O)cc(O)c21 [(S)-pinocembrin, reference compound] | 3.00 ± 0.32 | 2.99 ± 0.61 | 2.81 ± 0.57 | 243 ± 19.5 | 240 ± 16.8 | 240.8 ± 24.3 | 1.29 ± 0.72 | 1.79 ± 0.63 | 1.59 ± 0.77 | 1.77 ± 0.70 | 15.32 ± 7.98 | 28.06 ± 12.98 | 15.78 ± 7.28 | 25.97 ± 12.75 | 81.95 ± 1.00 | 82.96 ± 0.98 | 81.87 ± 1.12 | 83.37 ± 1.27 | significant effects | not effective | effect on content of plasma fibrinogen (plasma fibrinogen; compared with the model group): no activity; effect on plasma ET-1 content (plasma ET-1; compared with the model group): no activity; LD50 (in vivo): 375 mg/kg
4 | pinocembrin racemate |  |  |  |  |  |  |  |  |  |  |  |  |  |  |  |  |  |  |  |  | increase of nerve cells in comparison with the model group (MCAO rats; 3 mg/kg): 11.5±8.9%; increase of nerve cells in comparison with the model group (MCAO rats; 10 mg/kg): 36.8±4.9%; increase of nerve cells in comparison with the model group (MCAO rats; 30 mg/kg): 51.7±6.6%
